Assay: Dissolution and solvate precipitation of pyripyropene derivative I in propylene carbonate (Alkylene carbonate A)
Type: physicochemical

Appearance of solution on continued agitation (10 wt % and 20 wt % in propylene carbonate, after additional approximately 2 hours of agitation, precipitate crystalline by microscopy): started to turn cloudy
Time for complete dissolution (10 wt % and 20 wt % solutions in Alkylene carbonate A (propylene carbonate), with agitation, both cases): about 1 hour
SMILES: C[C@]1(COC(=O)C2CC2)[C@@H]2C[C@H](O)[C@@]3(C)Oc4cc(-c5cccnc5)oc(=O)c4[C@H](O)[C@@H]3[C@@]2(C)CC[C@@H]1OC(=O)C1CC1 [pyripyropene derivative I]
